Test results: patent US12077503B2, “Substituted cyclic amides and their use as herbicides” (FMC CORPORATION, priority 2015, dated 2024)

Columns and labels:
Assay type in all cases: in vivo
[1] = system: barnyardgrass (Echinochloa crus-galli); test: Test B flooded paddy test; conditions: Flood, 250 g ai/ha; 0 to 100 scale where 0 is no effect and 100 is complete control; 13 to 15 d
Summary of the method: (§1)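 2-leaf plants; pots flooded 3 cm over soil; cpd added to paddy water; depth held; greenhouse 13–15 d; visual rating vs controls, 0 = no effect, 100 = complete control.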

rice (Oryra sativa) = test: Test B flooded paddy test; conditions: Flood, 250 g ai/ha; 0 to 100 scale where 0 is no effect and 100 is complete control; 13 to 15 d
Summary of the method: as §1

[2] = system: ducksalad (Heteranthera limosa); test: Test B flooded paddy test; conditions: Flood, 250 g ai/ha; 0 to 100 scale where 0 is no effect and 100 is complete control; 13 to 15 d
Summary of the method: as §1

[3] = system: sedge, umbrella (small-flower umbrella sedge, Cyperus difformis); test: Test B flooded paddy test; conditions: Flood, 250 g ai/ha; 0 to 100 scale where 0 is no effect and 100 is complete control; 13 to 15 d
Summary of the method: as §1

[4] = system: crabgrass, large (Digitaria sanguinalis); test: Test A preemergence; conditions: for Plant response rating, Crabgrass, Large: 125 g ai/ha, preemergence, 0 to 100 scale (0 no effect, 100 complete control); for Crabgrass, Large plant response rating (0 to 100 scale): Preemergence, 500 g ai/ha, 0 is no effect, 100 is complete control
Summary of the method: (§2)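 Seeded soil received test chemicals as a preemergence directed spray, and seedlings at one to two leaves, 2–10 cm tall, received them postemergence, in a non-phytotoxic, surfactant-containing solvent mixture. Pots were held in a greenhouse for approximately 10 d, then rated for injury from 0, no effect, to 100, complete control.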

[5] = system: barnyardgrass (Echinochloa crus-galli); test: Test A preemergence; conditions: for Plant response rating, Barnyardgrass: 125 g ai/ha, preemergence, 0 to 100 scale (0 no effect, 100 complete control); for Barnyardgrass plant response rating (0 to 100 scale): Preemergence, 500 g ai/ha, 0 is no effect, 100 is complete control
Summary of the method: as §2

[6] = system: wheat (Triticum aestivum); test: Test A preemergence; conditions: for Plant response rating, Wheat: 125 g ai/ha, preemergence, 0 to 100 scale (0 no effect, 100 complete control); for Wheat plant response rating (0 to 100 scale): Preemergence, 500 g ai/ha, 0 is no effect, 100 is complete control
Summary of the method: as §2

corn (Zea mays) [7] = test: Test A preemergence; conditions: for Plant response rating, Corn: 125 g ai/ha, preemergence, 0 to 100 scale (0 no effect, 100 complete control); for Corn plant response rating (0 to 100 scale): Preemergence, 500 g ai/ha, 0 is no effect, 100 is complete control
Summary of the method: as §2

[8] = system: morningglory (Ipomoea spp.); test: Test A preemergence; conditions: for Plant response rating, Morningglory: 125 g ai/ha, preemergence, 0 to 100 scale (0 no effect, 100 complete control); for Morningglory plant response rating (0 to 100 scale): Preemergence, 500 g ai/ha, 0 is no effect, 100 is complete control
Summary of the method: as §2

[9] = system: velvetleaf (Abutilon theophrasti); test: Test A preemergence; conditions: for Plant response rating, Velvetleaf: 125 g ai/ha, preemergence, 0 to 100 scale (0 no effect, 100 complete control); for Velvetleaf plant response rating (0 to 100 scale): Preemergence, 500 g ai/ha, 0 is no effect, 100 is complete control
Summary of the method: as §2

[10] = system: giant foxtail (Setaria faberii); test: Test A preemergence; conditions: for Plant response rating, Foxtail, Giant: 125 g ai/ha, preemergence, 0 to 100 scale (0 no effect, 100 complete control); for Foxtail, Giant plant response rating (0 to 100 scale): Preemergence, 500 g ai/ha, 0 is no effect, 100 is complete control
Summary of the method: as §2

[11] = system: pigweed (Amaranthus retroflexus); test: Test A preemergence; conditions: for Plant response rating, Pigweed: 125 g ai/ha, preemergence, 0 to 100 scale (0 no effect, 100 complete control); for Pigweed plant response rating (0 to 100 scale): Preemergence, 500 g ai/ha, 0 is no effect, 100 is complete control
[12] = system: crabgrass, large (Digitaria sanguinalis); test: Test A postemergence
Summary of the method: as §2

[13] = system: barnyardgrass (Echinochloa crus-galli); test: Test A postemergence
Summary of the method: as §2

[14] = system: wheat (Triticum aestivum); test: Test A postemergence
Summary of the method: as §2

corn (Zea mays) [15] = test: Test A postemergence
Summary of the method: as §2

[16] = system: morningglory (Ipomoea spp.); test: Test A postemergence
Summary of the method: as §2

[17] = system: velvetleaf (Abutilon theophrasti); test: Test A postemergence
Summary of the method: as §2

[18] = system: giant foxtail (Setaria faberii); test: Test A postemergence
Summary of the method: as §2

[19] = system: pigweed (Amaranthus retroflexus); test: Test A postemergence
Summary of the method: as §2

[20] = 500 g ai/ha, postemergence, 0 to 100 scale, 0 no effect, 100 complete control
[21] = Postemergence, 125 g ai/ha, visual injury, 0 to 100 scale (0 no effect, 100 complete control), approx. 10 d

Nc1cccc(C2CNC(=O)C2C(=O)Nc2cccc(F)c2F)c1 (stereo not drawn) [Compound 353]
0: Plant response rating, Barnyardgrass [1] | Plant response rating, Rice (rice (Oryra sativa)) | Plant response rating, Ducksalad [2] | Plant response rating, Sedge, Umbrella [3] | Plant response rating, Crabgrass, Large [4] | Crabgrass, Large plant response rating (0 to 100 scale) [4] | Plant response rating, Barnyardgrass [5] | Barnyardgrass plant response rating (0 to 100 scale) [5] | Plant response rating, Wheat [6] | Wheat plant response rating (0 to 100 scale) [6] | Plant response rating, Corn (corn (Zea mays) [7]) | Corn plant response rating (0 to 100 scale) (corn (Zea mays) [7]) | Plant response rating, Morningglory [8] | Morningglory plant response rating (0 to 100 scale) [8] | Plant response rating, Velvetleaf [9] | Velvetleaf plant response rating (0 to 100 scale) [9] | Plant response rating, Foxtail, Giant [10] | Foxtail, Giant plant response rating (0 to 100 scale) [10] | Plant response rating, Pigweed [11] | Pigweed plant response rating (0 to 100 scale) [11] | Plant response rating, Crabgrass, Large [12, 20] | Plant response rating, Crabgrass, Large [12, 21] | Plant response rating, Barnyardgrass [13, 20] | Plant response rating, Barnyardgrass [13, 21] | Plant response rating, Wheat [14, 20] | Plant response rating, Wheat [14, 21] | Plant response rating, Corn (corn (Zea mays) [15]; [20]) | Plant response rating, Corn (corn (Zea mays) [15]; [21]) | Plant response rating, Morningglory [16, 20] | Plant response rating, Morningglory [16, 21] | Plant response rating, Velvetleaf [17, 20] | Plant response rating, Velvetleaf [17, 21] | Plant response rating, Foxtail, Giant [18, 20] | Plant response rating, Foxtail, Giant [18, 21] | Plant response rating, Pigweed [19, 20] | Plant response rating, Pigweed [19, 21]

O=C1NCC(c2cccnc2)C1C(=O)Nc1ccccc1C(F)(F)F (racemic) [Compound 352]
0: Plant response rating, Barnyardgrass [1] | Plant response rating, Rice (rice (Oryra sativa)) | Plant response rating, Ducksalad [2] | Plant response rating, Sedge, Umbrella [3] | Plant response rating, Crabgrass, Large [4] | Crabgrass, Large plant response rating (0 to 100 scale) [4] | Plant response rating, Barnyardgrass [5] | Barnyardgrass plant response rating (0 to 100 scale) [5] | Plant response rating, Wheat [6] | Wheat plant response rating (0 to 100 scale) [6] | Plant response rating, Corn (corn (Zea mays) [7]) | Corn plant response rating (0 to 100 scale) (corn (Zea mays) [7]) | Plant response rating, Morningglory [8] | Morningglory plant response rating (0 to 100 scale) [8] | Plant response rating, Velvetleaf [9] | Velvetleaf plant response rating (0 to 100 scale) [9] | Plant response rating, Foxtail, Giant [10] | Foxtail, Giant plant response rating (0 to 100 scale) [10] | Plant response rating, Pigweed [11] | Pigweed plant response rating (0 to 100 scale) [11] | Plant response rating, Crabgrass, Large [12, 20] | Plant response rating, Crabgrass, Large [12, 21] | Plant response rating, Barnyardgrass [13, 20] | Plant response rating, Barnyardgrass [13, 21] | Plant response rating, Wheat [14, 20] | Plant response rating, Wheat [14, 21] | Plant response rating, Corn (corn (Zea mays) [15]; [20]) | Plant response rating, Corn (corn (Zea mays) [15]; [21]) | Plant response rating, Morningglory [16, 20] | Plant response rating, Morningglory [16, 21] | Plant response rating, Velvetleaf [17, 20] | Plant response rating, Velvetleaf [17, 21] | Plant response rating, Foxtail, Giant [18, 20] | Plant response rating, Foxtail, Giant [18, 21] | Plant response rating, Pigweed [19, 20] | Plant response rating, Pigweed [19, 21]
